System: partially denatured carbonic anhydrase II
Settings: sigmoidal TDi, degraded surface, 10° C., global two-site interaction model
Procedure: A second sensing surface remained uncoated to provide an accurate reference surface. […] FCI was performed by separately injecting 50 μL of each dilution at a rate of 50 μL min^−1. EDTA was excluded from the buffer to maintain the binding activity of the Zn-dependent carbonic anhydrase 11.
Two separate sigmoidal TDi assays were performed. The first sigmoidal TDi assay (FIG. 8B) was performed by injecting 250 μL of analyte sample at a flow rate of 100 μL min^−1 using a dispersion tube having a total volume capacity of 512 μL and a diameter of 0.50 mm. […] The second sigmoidal TDi assay (FIG. 8C) was performed by injecting 250 μL of analyte sample at a flow rate of 50 μL min^−1 using a dispersion tube having a total volume capacity of 512 μL and a diameter of 0.50 mm. […] The carbonic anhydrase II-coated surface was permitted to degrade at 25° C. for several days before performing the sigmoid TDi analysis. The second TDi assay was performed at 10° C. to preserve weak non-specific binding in order to mimic a realistic complex data set.

D: 4.49(1)×10^−10 m^2s^−1
SMILES: NS(=O)(=O)c1cc(C(=O)O)c(NCc2ccco2)cc1Cl [furosemide]

— patent US20130273564A1, “DISPERSION INJECTION METHODS FOR BIOSENSING” (priority 2010, published 2013)
